Data set [1] deals with α-synuclein-expressing WM983-B human metastatic melanoma cells. Briefly: Test screening of DPP compounds in human metastatic melanoma cells (cell death read-out). It is filed as cell-based. The following applies: WM983B, second 10 μM dose at 48 hr, serum-free culture medium, read at 48 h / 96 h. The procedure: To determine the impact of the DPP compounds on high-level α-synuclein-expressing human melanoma cells, WM983-B melanoma cells were plated, in duplicate, in 12-well tissue culture plates in cell culture medium containing 10% fetal bovine serum. Twenty-four hours later, the cells were rinsed three-times with serum-free medium, followed by addition of serum-free medium containing each DPP compound at a dose of 10 μM. Following incubation of the DPP compound-treated cells at 37° C. for 48 hr, each DPP compound was added to the cells at a second 10 μM dose. Using light microscopy, changes in the cells' morphology>detachment of the cells from the cell culture dish/floating in the cell culture medium>cell death were recorded on a scale of 0, +, ++, +++, ++++ at the 24 hr, 48 hr, 72 hr and 96 hr time-point following addition of DPP compound.
The DPP compounds were added to α-synuclein-expressing WM983-B human metastatic melanoma cells.

The test system of data set [2] is WM1158 melanoma cells. Briefly: Melanoma cell proliferation analysis. The format is cell-based, human. Particulars: over 96 hr, replenishment at 48 hr. The text has this:
(§1) To assess the possible impact of anle138b as well as anle138c on the different melanoma cell lines, WM983-A, WM983-B and SK-MEL-5, we treated them with increasing doses of either compound, dissolved in dimethyl sulfoxide (DMSO), and added to serum-free culture medium. […] We also observed that treatment with anle138b caused a more rapid morphological change than anle138c. To determine whether the effect of the two anle compounds was related to the amount of α-synuclein produced by the cells, we compared the proliferation of the (VGP) WM983-A high-level and the (RGP/VGP) WM1158 low-level α-synuclein-producing melanoma cells over a period of 96 hr, with replenishment of each anle compound at 48 hr (FIGS. 8A and B).
(§2) 10 or 30 mM stock solutions of anle138b or anle138c were made in DMSO. Since anle138b as well as anle138c bind strongly to FBS, melanoma cells, plated for 24 hr in tissue-culture medium containing 10% FBS, were rinsed three times with serum-free medium prior to addition of anle138b, anle138c, or an equivalent volume of DMSO only in serum-free medium. Forty-eight hours later, the cell culture medium was removed, followed by addition of an equivalent dose of anle138b or anle138c, or DMSO only in serum-free culture medium. […] Proliferation of melanoma cells that had received DMSO only, or were treated with anle138b was determined by counting the cells with a hemocytometer.

The subject of data set [3] is high-level α-synuclein expressing cell lines WM983-B. Briefly: Initial screen of sixteen compounds from the DPP library. The format is cell-based, human.
The target in data set [4] is α-synuclein monomers (Homo sapiens, UniProt P37840). Particulars: cited from earlier work.
In data set [5] the test system is WM983-A, WM983-B, and SK-MEL-5 melanoma cell lines. Briefly: Apoptosis markers in treated melanoma cells. It is filed as cell-based, human. The text has this:
Although the morphological changes in the WM983-A, WM983-B, and SK-MEL-5 melanoma cell lines following addition of anle138b occurred quite rapidly, they were not indicative of the cells undergoing apoptosis. […] Differential interference contrast (DIC) images of the morphology of the anle138b-treated WM983-B, SK-MEL-5, and WM1158 melanoma cells from the same panels are shown in FIG. 9.

The test system of data set [6] is WM983-B melanoma cells. Briefly: Autophagy: LC3 immunofluorescence. The format is cell-based, human. The procedure:
(§3) We observed a clear effect of the anle compounds on the autophagy pathway of the melanoma cells. […] Following addition of anle138c, the effect was seen later with levels of 8% at 24 hr and 78% after 96 hr.
(§4) Autophagy. WM983-B and SK-MEL-5 cells that for 24 or 48 hr were treated with anle138 or had received DMSO only were fixed for 20 min with 3.7% PFA, permeabilized, blocked, and probed with an anti-LC3B [clone 2G6] antibody (nanoTools Antikörpertechnik GmbH & Co. KG, Teningen, Germany), followed by a donkey anti-mouse Alexa-488 secondary antibody and Draq5 DNA counterstain. Confocal image stacks were obtained with a 63×NA 1.2 objective on a Zeiss LSM 510 Meta confocal microscope.

Data set [7] has as its system SK-MEL-5 melanoma cells. Description: Autophagy: LC3 immunofluorescence. It is filed as cell-based, human. Particulars: compared with WM983-B cells. On the procedure:
as §3, §4

A short description of data set [8]: Binding to FBS. It is filed as in vitro ADME.
In data set [9] the test system is WM1158 melanoma cells. Description: Cell morphology (phase-contrast). Particulars: 10 μM, up to 96 hr, replenishment at 48 hr. The format is cell-based, human.
From the text: as §1, §2
(§5) Cell morphology. Phase-contrast or DIC images of the melanoma cells that had been treated for various times with anle138b or anle138c, or had received DMSO only were captured with a 10×NA 0.6 objective on a Zeiss Axiovert 100 microscope with a Hamamatsu Orca charge-coupled device (CCD) camera. At least four images, at random areas per culture dish, were recorded for each time point.

The test system of data set [10] is WM983-B melanoma cells. Description: Cell morphology (phase-contrast). The format is cell-based, human. The following applies: increasing doses, serum-free medium; time- and dose-dependent.
From the text: as §1, §2, §5

The test system of data set [11] is SK-MEL-5 melanoma cells. Description: Cell morphology (phase-contrast). It is filed as cell-based, human. Particulars: increasing doses, serum-free medium; time- and dose-dependent.
From the text: as §1, §2, §5

Each structure is given as a SMILES string.

With `Fc1cccc(-c2cc(-c3ccc4c(c3)OCO4)n[nH]2)c1`, the cytotoxicity at 10 µM in [1] is under 20%.

In the case of `Clc1cccc(-c2cc(-c3ccc4c(c3)OCCO4)n[nH]2)c1`, the cytotoxicity at 10 µM in [1] came out at 100%.

`CN(C)c1ccc(-c2cc(-c3cccc(F)c3)on2)cc1`: the cytotoxicity at 10 µM in [1] lay within 50 to 90%.

With `Oc1ccc(-c2noc(-c3cccc(F)c3)n2)cc1O`, the cytotoxicity at 10 µM in [1] came to 100%.

In the case of `Brc1cccc(-c2cc(-c3ccc4ccoc4c3)n[nH]2)c1`, the cytotoxicity at 10 µM in data set [1] was 50 to 90%.

For the molecule `Cn1nc(-c2ccc3c(c2)OCO3)cc1-c1cccc(Br)c1`, the cytotoxicity at 10 µM in data set [1] fell in the range of 50 to 90%.

As to `Brc1cccc(-c2cc(-c3ccc4ccccc4c3)n[nH]2)c1`, the cytotoxicity at 10 µM in data set [1] was in the range of 20 to 50%.

Take `Brc1cccc(-c2nc(-c3ccc4c(c3)OCO4)no2)c1`: in data set [1], the cytotoxicity at 10 µM is under 20%.

For the molecule `FCCn1nc(-c2cccc(Br)c2)cc1-c1ccc2c(c1)OCO2`, the cytotoxicity at 10 µM in [1] amounted to 100%.

`Oc1ccc(-c2cc(-c3cccc(Br)c3)[nH]n2)cc1O` [anle138c]: the proliferation entry in data set [2] is reported as “reduced proliferation only after 48 hr”. Further, in data set [3], the “effect on WM983-B cells in initial screen” value was “significantly affected”. Besides, the “binding to α-synuclein monomers” value in [4] is listed as “Neither of these two compounds binds to α-synuclein monomers”. In addition, the “cleaved caspase 3 (apoptosis)” value in data set [5] is given as “nor were they positive for cleaved caspase 3”. In addition, the “cells with punctuate upregulation of LC3” value amounted to 8% in data set [6] (24 hr, cells still attached) and 78% in data set [6] (96 hr). For the same molecule, the “levels of punctuate LC3 loci” value in data set [7] is “even higher levels”. Besides, the “binding to FBS” value in data set [8] is “bind strongly”. Further, the morphology entry in data set [9] is listed as “did not show a significantly altered morphology”. In addition, the morphological changes entry in [10] and in data set [11] was “major morphological changes” each time.

`Nc1ccc(-c2cc(-c3cccc(Cl)c3)[nH]n2)cc1`: the cytotoxicity at 10 µM in data set [1] was in the range of 20 to 50%.

For the molecule `Brc1cccc(-c2nc(-c3ccc4c(c3)OCCO4)co2)c1`, the cytotoxicity at 10 µM in data set [1] was found to be 100%.

For `Oc1ccc(-c2cc(-c3cccc(F)c3)[nH]n2)cc1O`, the cytotoxicity at 10 µM in data set [1] lay in the range of 50 to 90%.

Take `COc1ccc(-c2cc(-c3cccc(F)c3)on2)cc1OC`: the cytotoxicity at 10 µM in [1] amounted to 100%.

On to `Nc1cccc(-c2ncc(-c3ccc(Cl)c(Cl)c3)o2)c1`, for which the cytotoxicity at 10 µM in data set [1] came to 100%.

For `Brc1cccc(-c2c[nH]c(-c3ccc4c(c3)OCO4)n2)c1`, the cytotoxicity at 10 µM in data set [1] is 100%.

As for `CN(C)c1ccc(-c2cc(-c3cccc(Br)c3)no2)cc1`, the cytotoxicity at 10 µM in data set [1] was under 20%.

On to `Oc1ccc(-c2cc(-c3cccc(F)c3)on2)cc1O`, for which, in data set [1], the cytotoxicity at 10 µM stood at 100%.

For the molecule `CN(C)c1ccc(-c2cc(-c3cccc(Br)c3)[nH]n2)cc1` [drawing 79], the cytotoxicity at 10 µM in [1] was 100%.

On to `Brc1cccc(-c2cc(-c3ccc4c(c3)OCCO4)n[nH]2)c1`, for which, in data set [1], the cytotoxicity at 10 µM came to 100%.

With `Cc1ccc(Br)cc1-c1nc(-c2cccc(OC(F)(F)F)c2)no1`, the cytotoxicity at 10 µM in data set [1] was 50 to 90%.

Take `Oc1cccc(-c2cc(-c3cccc(Cl)c3)[nH]n2)c1`: the cytotoxicity at 10 µM in [1] was 50 to 90%.

On to `CC1(C)CCc2cc(-c3cc(-c4cccc(Br)c4)[nH]n3)ccc2O1`, for which the cytotoxicity at 10 µM in data set [1] turned out to be 100%.

As for `COc1cccc(-c2c[nH]c(-c3cccc(Br)c3)n2)c1`, the cytotoxicity at 10 µM in data set [1] was 100%.

`Clc1cc(Cl)cc(-c2nc(-c3ccc4c(c3)OCO4)no2)c1`: in [1], the cytotoxicity at 10 µM was under 20%.

Consider `CN(C)c1ccc(-c2cc(-c3cccc(Br)c3)[nH]n2)cc1` [anle253b, 5-(3-Bromophenyl)-3-(4-dimethylaminophenyl)-1H-pyrazole], for which, in data set [3], the “effect on WM983-B cells in initial screen” value is “significantly affected”.

Consider `COc1ccc(-c2noc(-c3cccc(Cl)c3)n2)cc1`, for which, in [1], the cytotoxicity at 10 µM fell in the range of 20 to 50%.

With `Cn1ccc2cc(-c3cc(-c4cccc(Br)c4)[nH]n3)ccc21`, the cytotoxicity at 10 µM in data set [1] lay in the range of 20 to 50%.

Turning to `Brc1cccc(-c2cc(-c3ccc4c(c3)OCCCO4)n[nH]2)c1`, the cytotoxicity at 10 µM in data set [1] was determined as 100%.

`FC1(F)Oc2ccc(-c3cc(-c4cccc(Br)c4)[nH]n3)cc2O1`: in [1], the cytotoxicity at 10 µM was 20 to 50%.

Regarding `Clc1cccc(-c2cc(-c3ccc4c(c3)OCO4)n[nH]2)c1`, the cytotoxicity at 10 µM in data set [1] is 100%.

Take `CN1CCOc2cc(-c3cc(-c4cccc(Br)c4)[nH]n3)ccc21`: in data set [1], the cytotoxicity at 10 µM stood at 100%.

Consider `Brc1cccc(-c2cc(-c3ccc4nccnc4c3)n[nH]2)c1`, for which the cytotoxicity at 10 µM in data set [1] came out at 100%.

On to `Oc1ccc(-c2cc(-c3cccc(Br)c3)[nH]n2)cc1O` [drawing 77], for which the cytotoxicity at 10 µM in data set [1] came to 100%.

(Values after patent US11180518B2, “Phenyl-heterocycle-phenyl derivatives for use in the treatment or prevention of melanoma” (MAX-PLANCK-GESELLSCHAFT ZUR FÖRDERUNG DER WISSENSCHAFTEN …, priority 2017, dated 2021).)
